Results: patent publication US11396516B2, “Tricyclic compounds as Cyp1 inhibitors” (The General Hospital Corporation, priority 2017, dated 2022)
Entries after “also recorded” stand apart in the source; their conditions may differ. Like-named read-outs stand apart in the source and are kept apart here.

Assays:
zebrafish embryos = experiment: Zebrafish toxicity in the absence of doxorubicin (TD50); settings: absence of doxorubicin treatment
Procedure: Dose-response curves were constructed using Prism (GraphPad). Raw data representing percent rescue at each dose was log-transformed, and EC50 values were calculated using nonlinear regression analysis. The median toxic dose (TD50) was defined for each compound by assessing for pericardial edema, non-specific deformities, and death in the absence of doxorubicin treatment (data not shown). Concentrations at and above the TD50 (toxic dose) were excluded from dose-response curves.

CYP2C8 = CYP2C8 (Homo sapiens (Human), UniProt P10632); experiment: CYP inhibition assay, human liver microsomes; format: biochemical; settings: paclitaxel 10 μM, reference montelukast
CYP2C8, sequence (P10632 whole entry): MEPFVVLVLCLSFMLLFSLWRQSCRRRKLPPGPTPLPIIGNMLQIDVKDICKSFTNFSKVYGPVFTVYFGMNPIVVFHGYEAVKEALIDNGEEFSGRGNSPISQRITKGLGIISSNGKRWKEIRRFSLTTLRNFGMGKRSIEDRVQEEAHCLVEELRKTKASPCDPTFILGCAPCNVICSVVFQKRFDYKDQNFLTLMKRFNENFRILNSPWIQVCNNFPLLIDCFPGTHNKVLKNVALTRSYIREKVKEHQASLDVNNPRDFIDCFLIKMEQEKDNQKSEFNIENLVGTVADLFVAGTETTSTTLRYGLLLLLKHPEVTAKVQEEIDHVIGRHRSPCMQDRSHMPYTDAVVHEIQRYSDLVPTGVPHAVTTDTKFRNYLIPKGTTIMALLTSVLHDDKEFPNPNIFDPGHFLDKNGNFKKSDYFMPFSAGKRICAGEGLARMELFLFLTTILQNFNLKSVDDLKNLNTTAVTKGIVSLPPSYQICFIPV
Procedure: (§1) CYP inhibition experiments were performed by Cerep Panlabs (Eurofins) using human liver microsomes and the following substrates: phenacetin 10 μM (CYP1A), buproprion 100 μM (CYP2B6), paclitaxel 10 μM (CYP2C8), diclofenac 10 μM (CYP 2C9), omeprazole 0.5 μM (CYP2C19), dextromethorphan 5 μM (CYP2D6), and testosterone 50 μM (CYP3A). Metabolites of each substrate were measured using LC-MS/MS. Mean percent inhibition was calculated using the following reference inhibitors: furafylline (CYP1A), clopidogrel (CYP2B6), montelukast (CYP2C8), sulfaphenazole (CYP2C9), oxybutynin (CYP2C19), quinidine (CYP2D6), and ketoconazole (CYP3A). […] All concentrations were tested in duplicate to obtain the final results.
(§2) The ability of the tested compounds to inhibit a panel of CYP enzymes in vitro was assessed using a series of human liver microsome assays.

CYP3A = CYP3A (Homo sapiens, UniProt P08684); experiment: CYP inhibition assay, human liver microsomes; format: biochemical; settings: for Mean % Inhibition CYP3A: testosterone 50 μM, reference ketoconazole
CYP3A, sequence (P08684 2-503 limits assumed): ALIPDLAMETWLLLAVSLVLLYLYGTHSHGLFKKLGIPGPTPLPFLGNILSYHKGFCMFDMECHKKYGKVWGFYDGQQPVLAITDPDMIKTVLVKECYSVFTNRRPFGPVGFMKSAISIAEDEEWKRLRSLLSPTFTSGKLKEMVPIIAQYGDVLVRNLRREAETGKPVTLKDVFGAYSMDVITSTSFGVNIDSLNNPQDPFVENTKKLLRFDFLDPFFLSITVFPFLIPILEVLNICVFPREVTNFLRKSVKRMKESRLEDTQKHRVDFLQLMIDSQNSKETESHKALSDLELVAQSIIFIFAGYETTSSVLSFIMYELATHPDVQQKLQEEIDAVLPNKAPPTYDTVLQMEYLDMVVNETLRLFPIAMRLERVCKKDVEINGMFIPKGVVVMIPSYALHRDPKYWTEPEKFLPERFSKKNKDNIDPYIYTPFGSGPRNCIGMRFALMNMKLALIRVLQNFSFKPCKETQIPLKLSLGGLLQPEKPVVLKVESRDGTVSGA
Procedure: as §1, §2

CYP2C9 = CYP2C9 (Homo sapiens (Human), UniProt P11712); experiment: CYP inhibition assay, human liver microsomes; format: biochemical; settings: diclofenac 10 μM, reference sulfaphenazole
CYP2C9, sequence (P11712 whole entry): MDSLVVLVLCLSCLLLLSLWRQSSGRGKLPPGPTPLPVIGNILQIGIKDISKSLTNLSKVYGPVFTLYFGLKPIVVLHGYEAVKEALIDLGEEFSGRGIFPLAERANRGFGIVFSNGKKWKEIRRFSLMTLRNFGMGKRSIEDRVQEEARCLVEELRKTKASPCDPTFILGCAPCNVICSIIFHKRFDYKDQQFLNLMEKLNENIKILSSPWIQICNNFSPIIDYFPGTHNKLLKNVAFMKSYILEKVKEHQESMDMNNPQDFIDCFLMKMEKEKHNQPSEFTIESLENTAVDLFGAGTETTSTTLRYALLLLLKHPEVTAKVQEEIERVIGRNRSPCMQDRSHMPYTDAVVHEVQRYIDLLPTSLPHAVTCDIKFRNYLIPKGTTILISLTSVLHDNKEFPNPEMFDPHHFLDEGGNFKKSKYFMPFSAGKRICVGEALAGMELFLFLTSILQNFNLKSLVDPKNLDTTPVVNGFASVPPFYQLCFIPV
Procedure: as §1, §2

CYP2D6 = CYP2D6 (Homo sapiens (Human), UniProt P10635); experiment: CYP inhibition assay, human liver microsomes; format: biochemical; settings: dextromethorphan 5 μM; for Mean % Inhibition CYP2D6: reference quinidine
CYP2D6, sequence (P10635 whole entry): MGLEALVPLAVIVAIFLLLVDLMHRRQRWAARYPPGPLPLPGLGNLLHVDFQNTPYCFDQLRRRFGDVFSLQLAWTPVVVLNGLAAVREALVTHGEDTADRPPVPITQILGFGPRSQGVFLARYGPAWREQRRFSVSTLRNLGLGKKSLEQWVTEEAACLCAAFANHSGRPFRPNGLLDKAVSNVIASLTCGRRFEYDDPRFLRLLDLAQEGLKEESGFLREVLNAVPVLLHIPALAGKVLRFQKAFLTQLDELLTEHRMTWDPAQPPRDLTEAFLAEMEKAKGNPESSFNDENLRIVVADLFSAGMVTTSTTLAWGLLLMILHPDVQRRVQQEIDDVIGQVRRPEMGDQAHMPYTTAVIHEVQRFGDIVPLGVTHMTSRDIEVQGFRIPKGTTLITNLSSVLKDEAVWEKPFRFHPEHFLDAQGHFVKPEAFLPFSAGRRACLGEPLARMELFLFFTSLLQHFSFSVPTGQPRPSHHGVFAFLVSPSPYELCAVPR
Procedure: as §1, §2

CYP1A [1] = molecular target: CYP1A (Homo sapiens (Human), UniProt P05177); experiment: CYP inhibition assay, human liver microsomes; format: biochemical
CYP1A (Homo sapiens (Human), UniProt P05177), sequence (P05177 whole entry): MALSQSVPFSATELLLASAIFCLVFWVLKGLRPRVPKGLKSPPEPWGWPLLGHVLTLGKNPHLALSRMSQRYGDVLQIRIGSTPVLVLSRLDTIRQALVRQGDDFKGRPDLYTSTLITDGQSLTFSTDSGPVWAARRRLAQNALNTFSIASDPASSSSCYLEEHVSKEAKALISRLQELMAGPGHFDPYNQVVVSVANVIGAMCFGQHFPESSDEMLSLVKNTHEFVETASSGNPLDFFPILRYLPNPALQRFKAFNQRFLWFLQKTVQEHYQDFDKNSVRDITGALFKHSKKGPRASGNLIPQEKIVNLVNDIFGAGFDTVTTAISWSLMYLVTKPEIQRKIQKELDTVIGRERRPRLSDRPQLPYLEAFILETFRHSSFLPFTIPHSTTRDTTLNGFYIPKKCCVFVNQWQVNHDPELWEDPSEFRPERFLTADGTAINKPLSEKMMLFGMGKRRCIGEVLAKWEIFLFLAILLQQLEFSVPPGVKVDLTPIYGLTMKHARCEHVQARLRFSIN
Procedure: as §1, §2

CYP2C19 = CYP2C19 (Homo sapiens (Human), UniProt P33261); experiment: CYP inhibition assay, human liver microsomes; format: biochemical; settings: omeprazole 0.5 μM; for Mean % Inhibition CYP2C19: reference oxybutynin
CYP2C19, sequence (P33261 whole entry): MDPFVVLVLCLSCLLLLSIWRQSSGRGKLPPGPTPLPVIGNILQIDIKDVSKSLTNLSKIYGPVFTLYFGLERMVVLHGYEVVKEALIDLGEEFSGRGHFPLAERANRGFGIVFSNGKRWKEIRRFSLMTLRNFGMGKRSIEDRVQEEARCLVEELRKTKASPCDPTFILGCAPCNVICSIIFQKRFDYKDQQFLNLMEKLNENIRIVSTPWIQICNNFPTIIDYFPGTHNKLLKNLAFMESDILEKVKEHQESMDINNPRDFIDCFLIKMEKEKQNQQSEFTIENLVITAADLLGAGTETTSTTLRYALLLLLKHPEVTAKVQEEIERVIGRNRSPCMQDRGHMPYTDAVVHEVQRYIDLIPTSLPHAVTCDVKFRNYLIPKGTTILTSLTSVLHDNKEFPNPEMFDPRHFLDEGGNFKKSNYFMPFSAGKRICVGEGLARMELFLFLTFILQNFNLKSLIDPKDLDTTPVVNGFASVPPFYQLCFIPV
Procedure: as §1, §2

CYP2B6 = CYP2B6 (Homo sapiens (Human), UniProt P20813); experiment: CYP inhibition assay, human liver microsomes; format: biochemical; settings: buproprion 100 μM
CYP2B6, sequence (P20813 whole entry): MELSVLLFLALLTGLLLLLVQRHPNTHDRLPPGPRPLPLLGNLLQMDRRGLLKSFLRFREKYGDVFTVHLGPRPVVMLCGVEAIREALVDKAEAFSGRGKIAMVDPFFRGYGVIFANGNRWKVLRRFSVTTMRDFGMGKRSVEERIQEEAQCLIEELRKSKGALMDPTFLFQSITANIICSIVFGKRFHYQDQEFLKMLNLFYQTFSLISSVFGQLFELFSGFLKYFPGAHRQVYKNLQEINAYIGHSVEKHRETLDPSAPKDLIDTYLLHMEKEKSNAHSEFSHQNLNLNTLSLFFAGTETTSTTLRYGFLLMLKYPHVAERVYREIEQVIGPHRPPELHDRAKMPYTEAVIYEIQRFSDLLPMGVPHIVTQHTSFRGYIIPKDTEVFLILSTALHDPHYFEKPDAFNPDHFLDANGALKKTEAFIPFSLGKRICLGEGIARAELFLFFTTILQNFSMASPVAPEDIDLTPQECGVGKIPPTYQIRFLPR
Procedure: as §1, §2

[2] = tested on: DOX-induced cardiac apoptosis in C57/B16 mice; experiment: Mouse annexin model of acute DOX-induced cardiotoxicity (Anx-750 imaging); format: in vivo
Procedure: DOX fluorescence imaging was carried out on IVIS spectrum with the filter setting 500 nm excitation/600 nm emission, 30 second exposure, with 135 μm in-plane resolution. A series of DOX phantoms, ranging from 0 to 0.03 mM was prepared in saline, and imaged on the IVIS spectrum with identical settings. Anx-750 fluorescence was detected with the filter setting 745 nm excitation/800 nm emission, 30 second exposure, and 135 μm resolution.
Annexin and DOX fluorescence signal was quantified and analyzed in ImageJ (National Institute of Health). For each heart, fluorescence intensity was averaged across 4-6 slices. Annexin uptake was normalized to the saline injected control animals. DOX fluorescence in the heart was quantified by calculating the signal-to-noise ratio (SNR=mean fluorescence intensityheart/standard deviationair). A threshold of two standard deviations above the saline injected control animals was applied to all DOX injected animals, with or without therapeutics. Only animals that met the threshold (thus DOX positive hearts) were included in the analysis. All statistical analysis was performed in Prism (Graphpad).
Doxorubicin was dissolved in 0.9% normal saline and administered at a dose of 15 mg/kg to adult C57/B16 mice via i.p. injection. For the treatment arm, compound of example 2 was dissolved in 10% DMSO and 90% olive oil (carrier) or carrier alone was administered via intraperitoneal injection on the contralateral side.
Twenty-two hours after DOX and treatment injections, Anx-750 (Annexin Vivo 750, Perkin Elmer) was injected intravenously according to manufacturer's instructions. After 2 hours of probe circulation, hearts were excised, sectioned into 1-mm slices along the short axis, and imaged on a commercial imaging system (IVIS spectrum, Perkin Elmer) to assess apoptosis as previously described (Chen et al., 2011).
DOX uptake in the heart was assessed by reflectance fluorescence imaging, and the resultant apoptosis was simultaneously imaged with Anx-750, a near-infrared fluorescent Annexin V probe (Annexin-Vivo 750 is an Annexin V conjugate with a near-infrared fluorochrome, see Chen et al., 2011). […] Referring to FIGS. 1A-1D, * p<0.05, ** p<0.01, and *** p<0.001, ANOVA. Carrier=10% DMSO+90% olive oil.

[3] = tested on: zebrafish embryos treated with DOX (cardiomyopathy phenotype); experiment: Zebrafish doxorubicin cardiomyopathy model (rescue from phenotype); format: in vivo; settings: Danio rerio; rescue from DOX (100 μM) cardiomyopathy phenotype, 40 hours post-treatment; read-out: EC50 is zebrafish
Procedure: Zebrafish embryos at 30 hours post-fertilization were treated with DOX at 100 μM in 96-well plates as previously described (Liu et al., 2014). Tested compounds were dissolved in DMSO and added at concentrations ranging from 3 nM to 10 μM (n=6 fish per dose; <1% DMSO v/v). The cardiomyopathy phenotype (decreased cardiac contraction, pericardial edema, and decreased tail blood flow) was assessed under light microscopy (5× magnification) at 40 hours post-treatment (hpt). Percent rescue from the cardiomyopathy phenotype was calculated for each concentration tested. Zebrafish were considered to be rescued from DOX-induced cardiomyopathy if all three features of the phenotype were absent. For the tested compounds, each dose-response experiment was repeated three times.
Dose-response curves were constructed using Prism (GraphPad).
Zebrafish were treated with DOX and assessed for the development of the cardiomyopathy phenotype (decreased cardiac contraction, pericardial edema, and decreased tail blood flow). Zebrafish were considered to be rescued if all three features of the cardiomyopathy phenotype were absent upon co-treatment with a tested compound. Referring to FIGS. 3-9, data are depicted as mean+/−standard error (n=6 fish per dose; each experiment performed in triplicate).

HL-1 cardiomyocytes = experiment: Cultured HL-1 cardiomyocyte model (DOX-induced apoptosis, viability); format: cell-based, mouse; settings: doxorubicin 5 μM
Procedure: The cardiomyocyte cell line HL-1 derived from mouse atrial tumor was a gift from W. Claycomb. Cells were cultured as previously published (Claycomb et al., 1998) and treated with doxorubicin 5 μM with or without the tested compounds at a concentration up to 50 μM. Viability was assessed after 18 hours of using a CellTiter-Glo Luminescent assay from Promega. Each dose-response experiment was repeated three times.
Compounds were tested in HL-1 cultured cardiomyocytes to assess for efficacy in preventing DOX-induced apoptosis. Cell viability was assessed as described in the materials and methods section.

CYP1A [4] = experiment: Zebrafish CYP1A Western blot; format: in vivo; settings: co-treatment with DOX, 10 μM
Procedure: Assessing RNA and protein levels was performed using quantitative PCR (FIG. 2A) and Western blot with a zebrafish-specific antibody against CYP1A (FIG. 2B). […] This effect was seen as early as 18 hours post-treatment, prior to the development of the cardiomyopathy phenotype at 42 hours post-treatment.

CYP1 enzymes = experiment: Zebrafish CYP1 enzyme levels after DOX treatment; settings: co-treatment with doxorubicin
sqstm1 = experiment: Zebrafish proteomics; format: in vivo; settings: zebrafish embryos, visnagin 20 μM
dhrs13l1 = experiment: Zebrafish proteomics; format: in vivo; settings: zebrafish embryos, visnagin 20 μM
rad9a = experiment: Zebrafish proteomics; format: in vivo; settings: zebrafish embryos, visnagin 20 μM
cyp1b1 = experiment: Zebrafish proteomics; format: in vivo; settings: zebrafish embryos, visnagin 20 μM
Procedure: (§3) The proteomics analysis was carried out as described in the material and methods section. All protein abundance values are normalized to DMSO-treated control zebrafish. * p<0.05 compared to the DMSO control using the Benjamini-Hochberg method of correcting for multiple hypotheses.

cyp1c1 = experiment: Zebrafish proteomics; format: in vivo; settings: zebrafish embryos, visnagin 20 μM
Procedure: as §3

CYP1A [5] = experiment: Zebrafish proteomics; format: in vivo; settings: zebrafish embryos, visnagin 20 μM
Procedure: as §3

slc2a1a = experiment: Zebrafish proteomics; format: in vivo; settings: zebrafish embryos, visnagin 20 μM
LOC100332237 = experiment: Zebrafish proteomics; format: in vivo; settings: zebrafish embryos, visnagin 20 μM
gstp2 = experiment: Zebrafish proteomics; format: in vivo; settings: zebrafish embryos, visnagin 20 μM
thbs1b = experiment: Zebrafish proteomics; format: in vivo; settings: zebrafish embryos, visnagin 20 μM
[6] = tested on: zebrafish embryos treated with DOX (cardiomyopathy phenotype); experiment: Zebrafish doxorubicin cardiomyopathy model (rescue from phenotype); format: in vivo; settings: visnagin 20 μM plus AHR agonist

Molecule: CC(C)(C)OC(=O)NCCCOc1c2ccoc2cc2oc(=O)ccc12 [Example 2, tert-butyl (3-((7-oxo-7H-furo[3,2-g]chromen-4-yl)oxy)propyl)carbamate]
- toxic dose TD50 in the zebrafish model (zebrafish embryos): > 10 µM
- Mean % Inhibition CYP2C8 (CYP2C8): 7.1%
- IC50 (CYP3A; probe testosterone 50 μM): 9300 nM
- Mean % Inhibition CYP3A (CYP3A): 62.7%
- Mean % Inhibition CYP2C9 (CYP2C9): 2.4%
- IC50 (CYP2D6): 2000 nM
- Mean % Inhibition CYP2D6 (CYP2D6): 84.4%
- IC50 (CYP1A [1]; human liver microsomes, phenacetin 10 μM, read-out: IC50 (M) CYP1A): 1.6e-06 M
- IC50 (CYP2C19): 12000 nM
- Mean % Inhibition CYP2C19 (CYP2C19): 57.0%
- IC50 (CYP2B6): 88000 nM
- Mean % Inhibition CYP2B6 (CYP2B6; reference clopidogrel): 67.2%
- cardiac apoptosis / Annexin (Anx-750) uptake ([2]; DOX 15 mg/kg i.p., doses of 0.1 mg/kg, 1 mg/kg and 2 mg/kg i.p., 24 hours): significant reduction in apoptosis; also recorded: reduced significantly; also recorded: significant cardioprotective effect
- Annexin-Vivo fluorescence in the mouse heart / cardioprotection ([2]; DOX 15 mg/kg, 0.1 mg/kg i.p.): significantly reduced; also recorded: cardioprotective
- ex vivo Anx fluorescence in heart ([2]; DOX 15 mg/kg, dose of 2 mg/kg): marked reduction
- potency relative to visnagin in reducing DOX-induced cardiomyocyte apoptosis in mice ([2]; compared to visnagin): 250 fold
- EC50 [3]: 7 nM
- EC50 (HL-1 cardiomyocytes; Mus musculus, HL-1, viability after 18 hours, CellTiter-Glo, read-out: EC50 in HL-1 Cells): > 50000 nM
- efficacy in HL-1 cell culture model (HL-1 cardiomyocytes; doses up to 50 μM): ineffective
- induction of CYP1A by DOX, Western blot (CYP1A [4]): mitigated induction of CYP1A
- effect on DOX-induced increase of CYP1 enzyme levels (CYP1 enzymes): completely abolished

Molecule: 4-ethoxy-7-methyl-5H-furo[3,2-g][1]-benzopyran-5-one [visnagin]
- Protein Abundance (Normalized to DMSO) sqstm1 (sqstm1; 40 hours post-treatment): 0.98
- DOX/DOX+ visnagin protein abundance ratio sqstm1 (sqstm1): 2.43
- Protein Abundance (Normalized to DMSO) dhrs13l1 (dhrs13l1; 40 hours post-treatment): 0.89
- DOX/DOX+ visnagin protein abundance ratio dhrs13l1 (dhrs13l1): 2.79
- Protein Abundance (Normalized to DMSO) rad9a (rad9a; 40 hours post-treatment): 1.15
- DOX/DOX+ visnagin protein abundance ratio rad9a (rad9a): 2.50
- Protein Abundance (Normalized to DMSO) cyp1b1 (cyp1b1; 40 hours post-treatment): 0.94
- DOX/DOX+ visnagin protein abundance ratio cyp1b1 (cyp1b1): 5.31
- Protein Abundance (Normalized to DMSO) cyp1c1 (cyp1c1; 40 hours post-treatment): 0.80
- DOX/DOX+ visnagin protein abundance ratio cyp1c1 (cyp1c1): 7.57
- Protein Abundance (Normalized to DMSO) cyp1a (CYP1A [5]; 40 hours post-treatment): 0.84
- DOX/DOX+ visnagin protein abundance ratio cyp1a (CYP1A [5]): 7.03
- Mean % Inhibition CYP2C8 (CYP2C8): 8.1%
- Mean % Inhibition CYP3A (CYP3A): 4.2%
- Mean % Inhibition CYP2C9 (CYP2C9): 1.7%
- Mean % Inhibition CYP2D6 (CYP2D6): 9.9%
- IC50 (CYP1A [1]): 2.4e-07 M
- Mean % Inhibition CYP2C19 (CYP2C19): 1.2%
- Protein Abundance (Normalized to DMSO) slc2a1a (slc2a1a; 40 hours post-treatment): 0.83
- DOX/DOX+ visnagin protein abundance ratio slc2a1a (slc2a1a): 2.23
- Protein Abundance (Normalized to DMSO) LOC100332237 (LOC100332237; 40 hours post-treatment): 0.96
- DOX/DOX+ visnagin protein abundance ratio LOC100332237 (LOC100332237): 2.34
- Protein Abundance (Normalized to DMSO) gstp2 (gstp2; 40 hours post-treatment): 0.89
- DOX/DOX+ visnagin protein abundance ratio gstp2 (gstp2): 2.14
- Protein Abundance (Normalized to DMSO) thbs1b (thbs1b; 40 hours post-treatment): 0.89
- DOX/DOX+ visnagin protein abundance ratio thbs1b (thbs1b): 2.39

Molecule: COC(=O)c1csc(C(=O)c2c[nH]c3ccccc23)n1 [methyl 2-(1H-indole-3-carbonyl)-1,3-thiazole-4-carboxylate]
- effect on visnagin-mediated rescue from doxorubicin-induced cardiomyopathy [6]: abrogated
